Patent US20240124510A1, “Cyclic Glycoaminoacid Derivatives” (TFCHEM, priority 2021, published 2024)
“And” between values parts separate entries of the source, which are not always exact repeats. Equal entries are not always repeated.

Assays:
Assay type in all cases: cell-based
Human dermal fibroblasts = experiment: Cytotoxicity (LDH release) on dermal fibroblasts in classical condition; conditions: for Cytotoxicity (LDH release), Mean / Cytotoxicity (LDH release), Values: during 24 h after 11 days of culture, normalized by cell number; for Cytotoxicity (LDH release), Values: individual values
Experimental: Human dermal fibroblasts were isolated from skin tissue by dermis explants seeding in Petri dishes in DMEM-20% FBS for 3 weeks. Dermal fibroblasts were then seeded in 96-well plates and then incubated in different culture conditions described below.
Different culture conditions were realized in triplicate at least: • Positive control of cytotoxicity: cells in DMEM 1% FBS medium lysed by 0.2% triton at the end of the culture period • Control: cells in DMEM 1% FBS medium • Test: cells in DMEM 1% FBS medium added with test compound 6 and compound 44 of WO2015/140178.
Cytotoxicity was assessed by the measurement of the lactate dehydrogenase (LDH) released by damaged cells in the culture medium (using the kit CytoTox-One Non-Radioactive Cytotoxicity Assay, G1780, Promega). Cells were treated with 0.2% of triton at the end of the culture to determine the maximal toxicity response. […]
The results were normalized by cell number, determined by nuclei staining (with DAPI: 4′,6-Diamidino-2-Phenylindole, Dihydrochloride), and were represented in percentage of the lysis positive control. Compounds presenting a level of cytotoxicity below 20% compared to control were considered as non-toxic.
Quantity of LDH released by cells was normalized by cell number in each culture condition. Data are represented in percentage of the positive control.

Hyaluronic Acid (HA) = experiment: Hyaluronic acid secretion in coculture of human aged fibroblasts and mature adipocytes (ELISA); conditions: for secretion of HA, normalized by fibroblasts number, in percentage of the coculture control condition, Values (%): individual replicates
Source text: In order to evaluate its effect on fibroblast matrix and its anti-inflammatory properties, the effect of compound 6 has been tested on an adipocytes-aged fibroblasts coculture model, mimicking the interactions between dermis and hypodermis in the skin and allowed to explore in parallel the biological effects of the products on two cellular targets.
• Experimental model: co-culture of human mature adipocytes cultured in 3D and human dermal fibroblasts cultured in 2D (AM3D-FB2D co-culture). This experimental model of AM3D-FB2D co-culture mimicked the interactions between dermis and hypodermis in the skin and allowed to explore in parallel the biological effects of the products on two cellular targets. • Donor characteristics: This study was performed on mature adipocytes and fibroblasts from two different donors (one donor for mature adipocytes and another donor for dermal fibroblasts). • Fibroblasts donor=person, BMI=28 kg/m^2 • Adipocytes donor=person, BMI=21.4 kg/m^2 • Treatment procedure: compound 6 was added to the co-culture medium daily for up to 6 days
Dermal fibroblasts were seeded in DMEM 10% FBS at 10000 cells/well. The day after, the adipocytes capsules of 50 μl were added in suspension above the fibroblasts and the medium was changed and replaced by a specific culture medium for the co-culture AM3D-FB2D. The formation of adipocytes capsules followed an internal standardized protocol. Briefly, the fully mature adipocytes were isolated from the hypodermis after digestion by collagenase. The isolated adipocytes were then washed with a wash buffer and encapsulated in a peptidic hydrogel to form 3D adipocytes capsules of 50 μl in size. Cells were incubated at 37° C. and 5% CO2 overnight for stabilization. Treatments were initiated at DO with a medium change at DO, D2, D3 and D5. The entire culture media of 24 h incubation was collected at D3 and D6, before being centrifugated and stored at −80° C. Each culture condition was done in triplicate.
The biochemical analyses on culture media were performed via ELISA using specific kits according to the manufacturer's recommendations: IL-6 (Duoset DY206, R&D Systems), and Hyaluronic Acid (HA) (Duoset, DY3614-05, R&D Systems and Procollagen I (Duoset, DY6220-05, R&D Systems) The results of HA and Procollagen I were normalized by fibroblasts cell number regarding the fact that these molecules were secreted mainly by fibroblasts. All the biochemical results were represented in percentage of the control condition.
To evaluate the effect of the compound 6 on fibroblast's matrix, the extracellular concentrations of Hyaluronic Acid (HA), that is secreted only by the fibroblasts, were measured at D3 and D6.

[1] = test system: SOD2 gene expression in aged human fibroblasts; experiment: SOD2 gene expression in aged human fibroblasts; conditions: 6 mg/ml

## N[C@H]1CCCN(CC(F)(F)[C@]2(O)O[C@H](CO)[C@H](O)[C@H](O)[C@H]2O)C1=O [Compound 6]
Human dermal fibroblasts; 0.1 mg/ml
  Cytotoxicity (LDH release), Mean: 6.7 percentage of positive control
  Cytotoxicity (LDH release), Values: 5.9 percentage of positive control and 4.8 percentage of positive control and 6.5 percentage of positive control and 9.8 percentage of positive control
Human dermal fibroblasts; 0.5 mg/ml
  Cytotoxicity (LDH release), Mean: 5.6 percentage of positive control
  Cytotoxicity (LDH release), Values: 7.1 percentage of positive control and 6.6 percentage of positive control and 3.1 percentage of positive control and 5.7 percentage of positive control
Human dermal fibroblasts; 2 mg/ml, 0.5 mg/ml and 0.1 mg/ml
  Toxicity on dermal fibroblasts: No toxicity
Human dermal fibroblasts; 2 mg/ml
  Cytotoxicity (LDH release), Mean: 5.1 percentage of positive control
  Cytotoxicity (LDH release), Values: 4.2 percentage of positive control and 5.1 percentage of positive control and 5.3 percentage of positive control and 6.0 percentage of positive control
Human dermal fibroblasts; all concentrations
  Protective effect on dermal fibroblasts under classical condition: strong protective effect
Hyaluronic Acid (HA); 1 mg/ml, 3 days of treatment
  HA secretion, normalized by fibroblasts number, % of the control: 140%
Hyaluronic Acid (HA); 1 mg/ml, 6 days of treatment
  HA secretion, normalized by fibroblasts number, % of the control: 189%
Hyaluronic Acid (HA); 2 mg/ml, 6 days of treatment
  HA secretion, normalized by fibroblasts number, % of the control: 225%
Hyaluronic Acid (HA); 3 mg/ml, 6 days of treatment
  HA secretion, normalized by fibroblasts number, % of the control: 164%
Hyaluronic Acid (HA); D3, 1 mg/ml
  secretion of HA, normalized by fibroblasts number, in percentage of the coculture control condition, Mean (%): 140%
  secretion of HA, normalized by fibroblasts number, in percentage of the coculture control condition, Values (%): 127% and 123% and 169%
Hyaluronic Acid (HA); D3, 2 mg/ml
  secretion of HA, normalized by fibroblasts number, in percentage of the coculture control condition, Mean (%): 90%
  secretion of HA, normalized by fibroblasts number, in percentage of the coculture control condition, Values (%): 96% and 93% and 80%
Hyaluronic Acid (HA); D3, 3 mg/ml
  secretion of HA, normalized by fibroblasts number, in percentage of the coculture control condition, Mean (%): 85%
  secretion of HA, normalized by fibroblasts number, in percentage of the coculture control condition, Values (%): 83% and 75% and 98%
Hyaluronic Acid (HA); D6, 1 mg/ml
  secretion of HA, normalized by fibroblasts number, in percentage of the coculture control condition, Mean (%): 189%
  secretion of HA, normalized by fibroblasts number, in percentage of the coculture control condition, Values (%): 172% and 157% and 237%
Hyaluronic Acid (HA); D6, 2 mg/ml
  secretion of HA, normalized by fibroblasts number, in percentage of the coculture control condition, Mean (%): 225%
  secretion of HA, normalized by fibroblasts number, in percentage of the coculture control condition, Values (%): 240% and 233% and 203%
Hyaluronic Acid (HA); D6, 3 mg/ml
  secretion of HA, normalized by fibroblasts number, in percentage of the coculture control condition, Mean (%): 164%
  secretion of HA, normalized by fibroblasts number, in percentage of the coculture control condition, Values (%): 121% and 213% and 159%
[1]
  increased SOD2 gene expression compared to the control: 204%
